According to US4616081A, “Cephalosporin compounds” (Asahi Kasei Kogyo Kabushiki Kaisha, priority 1982, dated 1986):

Experiments:
Shigella sonnei E33 = assay: MIC against Shigella sonnei E33; type: cell-based
Description: (§1) Nextly, antibacterial activity or minimum inhibitory concentration (MIC) was measured and the results are shown in Table 1 with respect to the following representative compounds according to the present invention. [drawing 19]
(§2) With respect to Compound Nos. 14 and 15, antibacterial activity or minimum inhibitory concentration (MIC) was measured and the results are shown in Table 2. [drawing 21]

[1] = system: Enterobact. cloacae GN336; assay: MIC against Enterobact. cloacae GN336; type: cell-based
Description: as §1, §2

[2] = system: Salm. enteritidis Gaertner; assay: MIC against Salm. enteritidis Gaertner; type: cell-based
Description: as §1, §2

Staph. aureus ATCC 6538P = assay: MIC against Staph. aureus ATCC 6538P; type: cell-based
Description: as §1, §2

E. coli NIHJ-JC2 = assay: MIC against E. coli NIHJ-JC2; type: cell-based
Description: as §1, §2

Sarcina lutea ATCC 9341 = assay: MIC against Sarcina lutea ATCC 9341; type: cell-based
Description: as §1, §2

[3] = system: Klebs. pneumoniae ATCC 10031; assay: MIC against Klebs. pneumoniae ATCC 10031; type: cell-based
Description: as §1, §2

E. coli W3630 = assay: MIC against E. coli W3630; type: cell-based
Description: as §1, §2

[4] = acute toxicity test using mice, intraperitoneal; settings: mouse, in vivo, ip
Description: In addition to excellent antibacterial activity, the compounds of the present invention are low in toxicity. For example, in acute toxicity test using mice, the following results were obtained with Compound Nos. 2, 3, 7, 14, 15 and 23 which were intraperitoneally administered.

Serratia marcescens = assay: MIC against Serratia marcescens; type: cell-based
Description: as §1, §2

[5] = maximum blood concentration after oral administration in Wister rats (HPLC and Bioassay); type: in vivo; settings: Wister rat, fasted, 30 mg/kg, solution of pH 7 in phosphate buffer
Description: Further in the compounds according to the present invention, intestinal absorption is improved by the introduction of amino acids at the 3-position thereof. For example, comparison of the maximum blood concentration of the Compound Nos. 2, 3, 7, 8, 14, 15 and 23 with that of Comparative Compound (b) establishes and affirms the effects, as is shown below. In the above test, the method for measurement of blood concentration was as follows. Rate: Wister rat weighing 170 to 220 g Dose: 30 mg/kg Wister rats were fasted from the previous night but freely accessible to water. Each of drugs was administered as a solution of pH 7 in a phosphate buffer, when orally administered. The blood concentration was measured in accordance with the High Performance Liquid Chromatography (HPLC) method and the Bioassay method by using E. coli as bacteria for test.

Proteus rettgeri ACR = assay: MIC against Proteus rettgeri ACR; type: cell-based; settings: Bacterial count inoculated 10^6 cells/ml
Description: as §1, §2

[6] = system: Enterobact. aerogenes 0655; assay: MIC against Enterobact. aerogenes 0655; type: cell-based
Description: as §1, §2

Proteus morganii 0239 = assay: MIC against Proteus morganii 0239; type: cell-based
Description: as §1, §2

E. coli W3630 PS3 = assay: MIC against E. coli W3630 PS3; type: cell-based
Description: as §1, §2

Ps. aeruginosa 0812 M2 = assay: MIC against Ps. aeruginosa 0812 M2; type: cell-based; settings: Bacterial count inoculated 10^6 cells/ml
Description: as §1, §2

[7] = system: Citrobact. freundii GN346; assay: MIC against Citrobact. freundii GN346; type: cell-based
Description: as §1, §2

Strept. pyogenes NY5 = assay: MIC against Strept. pyogenes NY5; type: cell-based; settings: Bacterial count inoculated 10^6 cells/ml
Description: as §1, §2

Staph. aureus MS27 = assay: MIC against Staph. aureus MS27; type: cell-based
Description: as §1, §2

Staph. pyogenes NY5 = assay: MIC against Staph. pyogenes NY5; type: cell-based
[8] = Bacterial count inoculated 10^6 cells/ml
[9] = Bacterial count inoculated 10^8 cells/ml

CO/N=C(\C(=O)N[C@@H]1C(=O)N2C(C(=O)O)=C(CSc3nc(C(=O)O)c(N)n3C)CS[C@H]12)c1csc(N)n1 [Compound No. 2]
Minimum Inhibitory Concentration (MIC) (Shigella sonnei E33; [8]): 0.4
Minimum Inhibitory Concentration (MIC) [1, 8]: 0.8
Minimum Inhibitory Concentration (MIC) [2, 8]: 0.2
Minimum Inhibitory Concentration (MIC) (Staph. aureus ATCC 6538P; [8]): 3.1
Minimum Inhibitory Concentration (MIC) (E. coli NIHJ-JC2; [8]): 0.2
Minimum Inhibitory Concentration (MIC) (Sarcina lutea ATCC 9341; [8]): 0.2
Minimum Inhibitory Concentration (MIC) [3, 8]: 0.1
Minimum Inhibitory Concentration (MIC) (E. coli W3630; [8]): 0.2
LD50 [4]: 9000 to 10000 mg/kg
Minimum Inhibitory Concentration (MIC) (Serratia marcescens; [8]): 0.2
Cmax [5]: 16000 ng/mL
Minimum Inhibitory Concentration (MIC) (Proteus rettgeri ACR): 0.2
Minimum Inhibitory Concentration (MIC) [6, 8]: 1.6
Minimum Inhibitory Concentration (MIC) (Proteus morganii 0239; [8]): 0.1
Minimum Inhibitory Concentration (MIC) (E. coli W3630 PS3; [8]): 0.2
Minimum Inhibitory Concentration (MIC) (Ps. aeruginosa 0812 M2): 6.3
Minimum Inhibitory Concentration (MIC) [7, 8]: 25
Minimum Inhibitory Concentration (MIC) (Strept. pyogenes NY5): 0.1
Minimum Inhibitory Concentration (MIC) (Staph. aureus MS27; [8]): 6.3

CO/N=C(\C(=O)N[C@@H]1C(=O)N2C(C(=O)O)=C(CSc3nnc(CC(N)C(=O)O)s3)CS[C@H]12)c1csc(N)n1 (stereo partly drawn) [Compound No. 7]
Minimum Inhibitory Concentration (MIC) (Shigella sonnei E33; [8]): ≤ 0.2
Minimum Inhibitory Concentration (MIC) (Shigella sonnei E33; [9]): 0.2
Minimum Inhibitory Concentration (MIC) [1, 8]: ≤ 0.2
Minimum Inhibitory Concentration (MIC) [1, 9]: 12.5
Minimum Inhibitory Concentration (MIC) [2, 8]: ≤ 0.2
Minimum Inhibitory Concentration (MIC) [2, 9]: 3.1
Minimum Inhibitory Concentration (MIC) (Staph. aureus ATCC 6538P; [8]): 1.6
Minimum Inhibitory Concentration (MIC) (Staph. aureus ATCC 6538P; [9]): 3.1
Minimum Inhibitory Concentration (MIC) (E. coli NIHJ-JC2; [8]): 0.4
Minimum Inhibitory Concentration (MIC) (E. coli NIHJ-JC2; [9]): 0.2
Minimum Inhibitory Concentration (MIC) (Sarcina lutea ATCC 9341; [8]): ≤ 0.2
Minimum Inhibitory Concentration (MIC) (Sarcina lutea ATCC 9341; [9]): ≤ 0.2
Minimum Inhibitory Concentration (MIC) [3, 8]: ≤ 0.2
Minimum Inhibitory Concentration (MIC) [3, 9]: 0.8
Minimum Inhibitory Concentration (MIC) (E. coli W3630; [8]): ≤ 0.2
Minimum Inhibitory Concentration (MIC) (E. coli W3630; [9]): 0.8
LD50 [4]: 9000 to 12000 mg/kg
Minimum Inhibitory Concentration (MIC) (Serratia marcescens; [8]): ≤ 0.2
Minimum Inhibitory Concentration (MIC) (Serratia marcescens; [9]): 100
Cmax [5]: 7000 ng/mL
Minimum Inhibitory Concentration (MIC) [6, 8]: ≤ 0.2
Minimum Inhibitory Concentration (MIC) [6, 9]: 25
Minimum Inhibitory Concentration (MIC) (Proteus morganii 0239; [8]): ≤ 0.2
Minimum Inhibitory Concentration (MIC) (Proteus morganii 0239; [9]): 25
Minimum Inhibitory Concentration (MIC) (E. coli W3630 PS3; [8]): ≤ 0.2
Minimum Inhibitory Concentration (MIC) (E. coli W3630 PS3; [9]): 1.6
Minimum Inhibitory Concentration (MIC) (Staph. pyogenes NY5; [8]): ≤ 0.2
Minimum Inhibitory Concentration (MIC) (Staph. pyogenes NY5; [9]): 0.2
Minimum Inhibitory Concentration (MIC) [7, 8]: 50
Minimum Inhibitory Concentration (MIC) [7, 9]: 100
Minimum Inhibitory Concentration (MIC) (Staph. aureus MS27; [8]): 3.1
Minimum Inhibitory Concentration (MIC) (Staph. aureus MS27; [9]): 3.1
